The record followed here is patent publication US20100104566A1, “ANTITUMOR COMBINATION COMPRISING A MORPHOLINYL ANTHRACYCLINE AND AN ANTIBODY” (NERVIANO MEDICAL SCIENCES S.R.L., priority 2007, published 2010).

The experiment deals with Human prostate carcinoma DU145 cells. Put plainly: In vivo antitumor efficacy of nemorubicin in combination with bevacizumab (tumor growth delay). The arrangement: species or system Balb Nu/Nu, male mice (athymic mice). As to conditions: DU145 s.c. in athymic mice; for Time to reach 1 g: advanced tumors, bevacizumab 20 mg/kg i.p. day 9, 13, 17, 21, 25, 29, nemorubicin 0.065 mg/kg i.v. day 9, 16, 23; for T-C: delay vs control to reach 1 g, bevacizumab 20 mg/kg i.p., nemorubicin 0.065 mg/kg i.v. q7dx3. As to the method: Materials and Methods: Balb Nu/Nu, male mice (athymic mice from Harlan, Italy) were maintained in cages with paper filter covers, food and bedding sterilized and water acidified. Human prostate carcinoma DU145 cells (from American Type Culture Collection) were implanted subcutaneously in athymic mice (2.5×10^6/cells mice). […] Drug treatments were performed on advanced tumors (when the tumors were palpable). Nemorubicin and bevacizumab were prepared immediately before use ad administered to mice in a volume of 10 ml/kg. Nemorubicin was administered as hydrochloride salt intravenously at a dose of 0.065 mg/kg and treatments were repeated weekly for 3 weeks. Bevacizumab was administered intraperitoneally at a dose of 20 mg/kg on the days 9, 13, 17, 21, 25 and 29 from the day of cell injection. When both compounds were administered on the same day, bevacizumab was administered intraperitoneally immediately before the intravenous injection of nemorubicin. Tumor growth and net body weight were evaluated every 3 days. Tumor growth was assessed by caliper. The two diameters were recorded, and the tumor weight was calculated according to the following formula: length (mm)×width^2 (mm)/2. The effect of the antitumor treatment was determined as the delay in the onset of an exponential growth of tumors [see for reference, Anti Cancer Drugs 7: 437-60, 1996]. This delay (T-C value) was defined as the difference of the time (in days) required for the treatment group (T) and the control group (C) tumors to reach a predetermined size (e.g. 1 g). Toxicity was evaluated on the basis of the body weight reduction.

Consider “Bevacizumab: monoclonal antibody directed against the vascular endothelial growth factor (VEGF)”, for which the “Time to reach 1 g” value is 21.31 days and the “T-C” value is given as 7.04 days.

For `COc1cccc2c1C(=O)c1c(O)c3c(c(O)c1C2=O)C[C@@](O)(C(=O)CO)C[C@@H]3O[C@H]1C[C@H](N2CCO[C@H](OC)C2)[C@H](O)[C@H](C)O1` [Nemorubicin, (8S-cis, 2″S)-7,8,9,10-tetrahydro-6,8,11-trihydroxy-8-(hydroxyacetyl)-1-methoxy-10-{[2,3,6-trideoxy-3-(2-methoxy-4-morpholinyl)-α-L-lyxo-hexopyranosyl]oxy}-5,12-naphthacenedione], the “Time to reach 1 g” value amounted to 18.95 days and the “T-C” value worked out at 4.68 days.
